Data reported in patent US6727253B2, “Treatment of accidental extravasation of anthracyclines” (Antianthra APS, priority 1999, dated 2004).
Where two headings read alike, the source gives them in different places.

How the values were obtained:
[1] = system: extravasation of doxorubicin in a patient; test: Clinical results in a patient with doxorubicin extravasation; format: in vivo
[2] = system: wound after daunorubicin SC in swine; test: Pilot study on swine, daunorubicin SC; format: in vivo; settings: 1 ml daunorubicin SC
Experimental: A danish porker weighting approximately 30 kg was used. The animals were fully anesthesized and artificially ventilated during SC injection of 1 ml of anthracycline.

[3] = system: SC daunorubicin induced wounds in mice; settings: for AUC / DW / FW / TTW: Table A
Experimental: The mice were euthanized after healing of all wounds.
The effect of various doses of ICRF-187 was investigated in Example 3.
Comparison of two concentrations of sc daunorubicin were compared with and without simultaneous treatment with ICRF-187 250 mg/kg.
ICRF-187 was administered at the same time as daunorubicin, 3 hours after, and 6 hours after, respectively. Saline served as control. The dose of daunorubicin was 3 mg/kg so and ICRF-187 was administered IP in a 250 mg/kg solution. Twenty-eight mice were used. The results are depicted in data sheet #6 and the mean AUCs are shown graphically in FIG. 5.
100 mg/kg ICRF-187 was injected into the subcutaneous papule produced by injected daunorubicin. This treatment was compared to intralesional saline control, IP saline control, and IP treatment with ICRF-187.
[…]. Seven experiments (n=6, 7, 7, 9, 9, 9, and 9) with 3 mg/kg daunorubicin SC plus saline IP at t=0 and seven experiments (n=6, 7, 7, 9, 9, 8, and 9) with 3 mg/kg daunorubicin SC plus 250 mg/kg ICRF-187 IP at t=0tin two experiments (n=9 and 4) the ICRF-187 doses were 62,5 mg/kg and 375 mg/kg IP, respectively, in two (n=7 and 9) the dose was 125 mg/kg. ICRF-187 250 mg/kg was administered IV in one (n=9).

[4] = Example 3, daunorubicin 3 mg/kg sc + ICRF-187 250 mg/kg IP
[5] = Example 3, daunorubicin 3 mg/kg sc + ICRF-187 375 mg/kg IP
[6] = Example 4, daunorubicin 1 mg/kg sc + ICRF-187 250 mg/kg IP simultaneous
[7] = Example 4, daunorubicin 3 mg/kg sc + ICRF-187 250 mg/kg IP simultaneous
[8] = Example 5, daunorubicin 1 mg/kg sc + ICRF-187 250 mg/kg IP
[9] = Example 5, daunorubicin 3 mg/kg sc + ICRF-187 250 mg/kg IP
[10] = Example 6, daunorubicin 3 mg/kg sc + ICRF-187 250 mg/kg IP 3 hours after daunorubicin
[11] = Example 6, daunorubicin 3 mg/kg sc + ICRF-187 250 mg/kg IP 6 hours after daunorubicin
[12] = Example 6, daunorubicin 3 mg/kg sc + ICRF-187 250 mg/kg IP at the same time
[13] = Example 7, daunorubicin 3 mg/kg sc + 0.05 ml ICRF-187 100 mg/kg IL
[14] = Example 7, daunorubicin 3 mg/kg sc + ICRF-187 250 mg/kg IP
[15] = daunorubicin 1 mg/kg SC + DEX 250 mg/kg IP at t=0, pooled data
[16] = daunorubicin 3 mg/kg SC + DEX 125 mg/kg IP at t=0, +3h and +6h
[17] = daunorubicin 3 mg/kg SC + DEX 125 mg/kg IP at t=0, pooled data
[18] = daunorubicin 3 mg/kg SC + DEX 250 mg/kg IP at t=0, pooled data
[19] = daunorubicin 3 mg/kg SC + DEX 250 mg/kg IP at t=0, pooled data, listed as DEX
[20] = daunorubicin 3 mg/kg SC + DEX 250 mg/kg IP at t=+3h
[21] = daunorubicin 3 mg/kg SC + DEX 250 mg/kg IP at t=+6h
[22] = daunorubicin 3 mg/kg SC + DEX 250 mg/kg IP day 0, 1, and 2
[23] = daunorubicin 3 mg/kg SC + DEX 250 mg/kg IV at t=0
[24] = daunorubicin 3 mg/kg SC + DEX 375 mg/kg IP at t=0
[25] = daunorubicin 3 mg/kg SC + DEX 62,5 mg/kg IP at t=0
[26] = daunorubicin 3 mg/kg SC + DEX 62,5 mg/kg IP at t=0, +3h and +6h
[27] = pooled, daunorubicin 3 mg/kg SC, ICRF-187 250 mg/kg IP at t=0, p<0.0001

SMILES: C[C@@H](CN1CC(=O)NC(=O)C1)N1CC(=O)NC(=O)C1 [ICRF-187, (+)-1,2-bis(3,5-dioxopiperazinyl-1-yl)propane]
- ulcer or skin-necrosis ([1]; 149 mg doxorubicin infused subcutaneously, ICRF-187 day 1-3, 30 days evaluation): No ulcer or signs of skin-necrosis developed
- side effects from the treatment ([1]; ICRF-187 1000, 1000, 500 mg/m^2 on day 1, 2, 3, initiated 2 h 30 m after extravasation): no side effects
- wound appearance ([2]; ICRF-187 25 mg/kg IV daily for three days): no wound appeared
- wound appearance ([2]; ICRF-187 50 mg/kg IV at t=0): a small wound appeared
- Mean AUC [3, 4]: 395 mm^2 × days
- Mean DWw ± SEM [3, 4]: 29.2 ± 1.1 days
- Mean TTWw ± SEM [3, 4]: 7.8 ± 1.1 days
- Nw/NG [3, 4]: 83%
- Mean AUC [3, 5]: 57 mm^2 × days
- Mean DWw ± SEM [3, 5]: 27.0 ± 0.0 days
- Mean TTWw ± SEM [3, 5]: 4.0 ± 0.0 days
- Nw/NG [3, 5]: 25%
- reduction of the AUC ([3]; Example 3, daunorubicin 3 mg/kg sc, ICRF-187 250 mg/kg vs saline, p<0.05): 48%
- reduction of the AUC ([3]; Example 3, daunorubicin 3 mg/kg sc, ICRF-187 375 mg/kg vs saline, p<0.05): 93%
- reduction in AUC ([3]; Example 4, daunorubicin 1 mg/kg sc (low dose), ICRF-187 250 mg/kg IP, p<0.05): 100%
- Mean AUC [3, 6]: 0 mm^2 × days
- Nw/NG [3, 6]: 0%
- reduction in AUC ([3]; Example 4, daunorubicin 3 mg/kg sc (high dose), ICRF-187 250 mg/kg IP, p<0.05): 75%
- Mean AUC [3, 7]: 313 mm^2 × days
- Mean DWw ± SEM [3, 7]: 14.0 ± 1.5 days
- Mean TTWw ± SEM [3, 7]: 12.0 ± 3.5 days
- Nw/NG [3, 7]: 43%
- Mean AUC [3, 8]: 50 mm^2 × days
- Mean DWw ± SEM [3, 8]: 16.0 ± 4.0 days
- Mean TTWw ± SEM [3, 8]: 10.5 ± 3.5 days
- Nw/NG [3, 8]: 22%
- reduction of AUC ([3]; Example 5, daunorubicin 1 mg/kg sc, ICRF-187 250 mg/kg IP, p<0.05): 73%
- Mean AUC [3, 9]: 158 mm^2 × days
- Mean DWw ± SEM [3, 9]: 13.7 ± 1.7 days
- Mean TTWw ± SEM [3, 9]: 9.9 ± 1.8 days
- Nw/NG [3, 9]: 78%
- reduction of AUC ([3]; Example 5, daunorubicin 3 mg/kg sc, ICRF-187 250 mg/kg IP, p<0.05): 83%
- Mean AUC [3, 10]: 421 mm^2 × days
- Mean DWw ± SEM [3, 10]: 21.0 ± 4.0 days
- Mean TTWw ± SEM [3, 10]: 7.0 ± 0.6 days
- Nw/NG [3, 10]: 43%
- Mean AUC [3, 11]: 926 mm^2 × days
- Mean DWw ± SEM [3, 11]: 24.9 ± 0.8 days
- Mean TTWw ± SEM [3, 11]: 6.7 ± 0.6 days
- Nw/NG [3, 11]: 100%
- Mean AUC [3, 12]: 326 mm^2 × days
- Mean DWw ± SEM [3, 12]: 19.6 ± 0.7 days
- Mean TTWw ± SEM [3, 12]: 7.7 ± 0.5 days
- Nw/NG [3, 12]: 100%
- AUC reduced ([3]; Example 6, daunorubicin 3 mg/kg sc, ICRF-187 250 mg/kg IP 6 hours delay, statistically non-significant): 34%
- AUC reduced ([3]; Example 6, daunorubicin 3 mg/kg sc, ICRF-187 250 mg/kg IP at t=0, p<0.05): 77%
- AUC reduced ([3]; Example 6, daunorubicin 3 mg/kg sc, ICRF-187 250 mg/kg IP at t=+3 hours, p<0.05): 70%
- Mean AUC [3, 13]: 403 mm^2 × days
- Mean DWw ± SEM [3, 13]: 19.4 ± 2.3 days
- Mean TTWw ± SEM [3, 13]: 6.9 ± 1.6 days
- Nw/NG [3, 13]: 78%
- Mean AUC [3, 14]: 562 mm^2 × days
- Mean DWw ± SEM [3, 14]: 19.0 ± 0.9 days
- Mean TTWw ± SEM [3, 14]: 9.6 ± 0.7 days
- Nw/NG [3, 14]: 89%
- reduction of the AUC ([3]; Example 7, daunorubicin 3 mg/kg sc, ICRF-187 250 mg/kg IP, p<0.05): 51%
- AUC [3, 15]: 28 (± 22) mm^2×days
- DW [3, 15]: 16.0 (± 4.0) days
- FW [3, 15]: 13%
- TTW [3, 15]: 10.5 (± 3.5) days
- AUC [3, 16]: 112 (± 37) mm^2×days
- DW [3, 16]: 18.0 (± 0.0) days
- FW [3, 16]: 22%
- TTW [3, 16]: 16.5 (± 0.5) days
- AUC [3, 17]: 692 (± 115) mm^2×days
- DW [3, 17]: 20.6 (± 0.8) days
- FW [3, 17]: 88%
- TTW [3, 17]: 8.4 (± 0.6) days
- AUC [3, 18]: 373 (± 48) mm^2×days
- DW [3, 18]: 17.4 days
- FW [3, 18]: 78%
- TTW [3, 18]: 9.7 days
- DW [3, 19]: 17.4 (± 0.6) days
- TTW [3, 19]: 9.7 (± 0.5) days
- AUC [3, 20]: 420 (± 206) mm^2×days
- DW [3, 20]: 21.0 (± 4.0) days
- FW [3, 20]: 43%
- TTW [3, 20]: 7.0 (± 0.6) days
- AUC [3, 21]: 927 (± 163) mm^2×days
- DW [3, 21]: 24.9 (± 0.8) days
- FW [3, 21]: 100%
- TTW [3, 21]: 6.7 (± 0.6) days
- AUC [3, 22]: 128 (± 34) mm^2×days
- DW [3, 22]: 13.3 (± 1.2) days
- FW [3, 22]: 75%
- TTW [3, 22]: 17.7 (± 1.0) days
- AUC [3, 23]: 479 (± 141) mm^2×days
- DW [3, 23]: 19.3 (± 1.3) days
- FW [3, 23]: 67%
- TTW [3, 23]: 9.2 (± 1.2) days
- AUC [3, 24]: 57 (± 57) mm^2×days
- DW [3, 24]: 23.0 (± 0.0) days
- FW [3, 24]: 25%
- TTW [3, 24]: 4.0 (± 0.0) days
- AUC [3, 25]: 662 (± 223) mm^2×days
- DW [3, 25]: 19.4 (± 1.3) days
- FW [3, 25]: 89%
- TTW [3, 25]: 8.1 (± 0.5) days
- AUC [3, 26]: 0 mm^2×days
- FW [3, 26]: 0%
- prevention of lesions ([3]; daunorubicin induced lesions, ICRF-187 250 mg/kg IP three days in a row): completely prevented
- protection by IP injection compared to IV administration ([3]; daunorubicin induced wounds, ICRF-187 250 mg/kg): no statistically significant difference
- degree of protection, triple-treatment ([3]; daunorubicin, ICRF-187 62,5 or 125 mg/kg IP at 0, 3 and 6 hours): at least the same degree of protection as a single injection of 250 mg/kg ICRF-187 IP
- protection with delayed administration ([3]; daunorubicin, ICRF-187 administered 3 hours after): no different from the protection obtained by immediate ICRF-187 administration
- protection with delayed administration ([3]; daunorubicin, ICRF-187 delay 6 hours): protection was lost
- treatment-related deaths ([3]; mouse, in vivo): no treatment-related deaths
- reduction in AUC ([3]; pooled, daunorubicin 3 mg/kg SC, ICRF-187 125 mg/kg IP, p=0.0175 vs 250 mg/kg): 45%
- mean duration of wounds reduced by [3, 27]: 35%
- mean time to wounds delayed by [3, 27]: 76%
- mean AUC reduced by ([3]; pooled, daunorubicin 3 mg/kg SC, single ICRF-187 250 mg/kg IP at t=0, p<0.0001): 70%
